In publication PMC11721616, “Evaluation of N-alkyl isatins and indoles as acetylcholinesterase and butyrylcholinesterase inhibitors” (Journal of Enzyme Inhibition and Medicinal Chemistry, 2023):
Values joined by “and” are separate entries in the source; they are usually repeats but may differ in a detail not shown here. Equal values may be shown once. Read-outs that look alike come from different tables or passages of the source.

Legend:
AChE [1] = target: T1, AChE (Electrophorus electricus, UniProt O42275); assay: AChE inhibition assay (Ellman method); assay type: biochemical
T1 construct: purchased Sigma-Aldrich C2888
T1 sequence (O42275 24-633): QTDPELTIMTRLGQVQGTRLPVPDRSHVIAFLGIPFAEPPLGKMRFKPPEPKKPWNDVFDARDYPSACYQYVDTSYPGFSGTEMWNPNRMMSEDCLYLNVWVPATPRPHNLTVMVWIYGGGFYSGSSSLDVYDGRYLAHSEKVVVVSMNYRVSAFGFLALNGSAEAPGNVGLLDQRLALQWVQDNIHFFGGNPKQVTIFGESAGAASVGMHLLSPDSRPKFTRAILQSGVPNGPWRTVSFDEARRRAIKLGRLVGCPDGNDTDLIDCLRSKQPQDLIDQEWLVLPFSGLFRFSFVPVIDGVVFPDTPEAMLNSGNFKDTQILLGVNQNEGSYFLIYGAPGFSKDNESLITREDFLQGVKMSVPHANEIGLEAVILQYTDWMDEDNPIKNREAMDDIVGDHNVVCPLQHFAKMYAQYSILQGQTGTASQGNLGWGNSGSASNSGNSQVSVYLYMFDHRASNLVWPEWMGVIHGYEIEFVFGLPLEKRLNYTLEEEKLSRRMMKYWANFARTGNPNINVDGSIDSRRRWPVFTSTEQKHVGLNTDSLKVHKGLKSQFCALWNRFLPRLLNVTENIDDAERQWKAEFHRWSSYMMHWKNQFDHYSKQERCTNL
Procedure: (§1) Inhibition of AChE (Sigma-Aldrich, Product No. C2888, from Electrophorus electricus) and BChE (Lee Biosolutions, Product No. 130–10-1, from equine serum) was carried out as previously described by our lab[18]^,[19]. Briefly, compounds to be tested were prepared in sodium phosphate (dibasic) buffer (0.1 M) containing 10% DMSO and then diluted with phosphate buffer across the wells of a 96-well plate to reach desired concentrations (50 µL total well volume). AChE (50 µL, 400 U/L, in phosphate buffer) or BChE (50 µL, 400 U/L, in phosphate buffer) was added to the appropriate wells. After incubation, the enzymatic reaction was initiated with 100 µL of a 1:1 (v/v) solution of acetylthiocholine (ATC, 2 mM in phosphate buffer) or butyrylthiocholine (BTC, 2 mM in phosphate buffer) and 5,5′-dithiobis-(2-nitrobenzoic acid) (DTNB, 1 mM in phosphate buffer). […] IC50 values were calculated using GraphPad Prism 9.1.1.
(§2) The synthesis of the target molecules 4a-j and 5a-j was carried out in straightforward fashion by substitution of isatin or indole with iodomethane or 1-bromoalkanes in the presence of K2CO3 and DMF or NaOH and DMSO (Scheme 1). […] A DEPT135 experiment was run to differentiate this signal (negative) from the solvent (positive) (see supplementary data), as we have employed previosuly. The synthesised compounds were then evaluated as AChEI and BChEI using the established Ellman method. Results are reported as IC50 values in Table 1.

BChE [2] = target: T2, BChE (Equus caballus, UniProt P81908); assay: biochemical; assay type: biochemical; details: for Selectivity: calculated as AChE IC50/BChE IC50
T2 construct: BChE (Lee Biosolutions, Product No. 130–10-1, from equine serum); purchased Lee Biosolutions 130–10-1; host or cells: equine serum
T2 sequence (P81908 whole entry): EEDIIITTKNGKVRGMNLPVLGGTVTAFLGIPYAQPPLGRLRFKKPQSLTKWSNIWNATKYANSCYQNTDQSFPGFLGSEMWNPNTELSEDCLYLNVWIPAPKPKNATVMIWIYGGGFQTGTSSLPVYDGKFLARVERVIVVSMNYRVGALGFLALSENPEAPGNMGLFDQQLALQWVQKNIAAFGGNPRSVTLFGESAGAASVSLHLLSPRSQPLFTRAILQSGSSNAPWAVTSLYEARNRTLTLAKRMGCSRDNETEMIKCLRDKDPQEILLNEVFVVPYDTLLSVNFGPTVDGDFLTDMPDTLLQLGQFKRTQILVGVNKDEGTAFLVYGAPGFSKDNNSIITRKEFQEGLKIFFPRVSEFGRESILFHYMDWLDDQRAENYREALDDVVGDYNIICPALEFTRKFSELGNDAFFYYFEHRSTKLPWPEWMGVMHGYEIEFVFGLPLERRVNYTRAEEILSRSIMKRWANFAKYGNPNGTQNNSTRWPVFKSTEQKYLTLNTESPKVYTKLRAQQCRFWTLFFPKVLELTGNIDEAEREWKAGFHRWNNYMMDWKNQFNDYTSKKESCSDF
Procedure: as §1, §2

AChE [3] = details: previously reported by Hyatt et al.; cited from earlier work
BChE [4] = details: previously reported by Hyatt et al.; cited from earlier work
AChE [5] = target: T1, AChE; assay: Kinetics assay of AChE inhibition (Lineweaver-Burk plot); assay type: biochemical; details: Lineweaver-Burk analysis with respect to acetylthiocholine (ATC)
Procedure: (§3) Kinetics assays of 4i inhibition with AChE and BChE were also carried out as previously described[18]^,[19]. Briefly, varying concentrations of 4i were incubated with AChE and BChE before initiating the enzymatic reactions by addition of 100 µL of a 1:1 (v/v) solution of ATC or BTC (0.4 mM, 0.5 mM, 1 mM, or 2 mM in phosphate buffer) and DTNB (1 mM in phosphate buffer) to all wells. […] Rate vs concentration was fitted to a Lineweaver-Burk plot using GraphPad Prism 9.1.1.

BChE [6] = target: T2, BChE; assay: Kinetics assay of BChE inhibition (Lineweaver-Burk plot); assay type: biochemical, equine; details: Lineweaver-Burk analysis with respect to butyrylthiocholine (BTC)
Procedure: as §3

AChE [7] = target: T1, AChE; details: values previously determined; cited from earlier work
AChE [8] = target: T1, AChE; details: previously reported; cited from earlier work
BChE [9] = target: T2, BChE; details: previously reported; cited from earlier work
BChE [10] = target: T2, BChE; details: read-out: BChE IC50; values previously determined; cited from earlier work
[11] = mean of three independent experiments ± SEM, > X = highest soluble concentration tested, read-out: AChE IC50
[12] = mean of three independent experiments ± SEM, > X = highest soluble concentration tested, read-out: BChE IC50

Structure (SMILES)	IC50 (AChE [1]; [11]) [µM]	Selectivity (BChE [2])	IC50 (BChE [2]; [12]) [µM]	further results
CCCCCCN1C(=O)C(=O)c2ccccc21 [Compound 4f, 1-Hexylindoline-2,3-dione]	> 125	> 1.4	90.8 ± 2.3	–
CN1C(=O)C(=O)c2ccccc21 [Compound 4a, 1-Methylindoline-2,3-dione]	–	< 0.6	–	IC50 (AChE [1]): 647 ± 57 µM; IC50 (BChE [2]): > 1000 µM; Ki (AChE [3]): > 100 µM; Ki (BChE [4]): > 100 µM
CCCCn1ccc2ccccc21 [Compound 5d, 1-Butyl-1H-indole]	> 125	–	> 125	–
CCCCCCCCCN1C(=O)C(=O)c2ccccc21 [Compound 4i, 1-Nonylindoline-2,3-dione]	82.1 ± 8.1	22 and 21.8	3.77 ± 0.45	mode of inhibition of AChE (AChE [5]): non-competitive inhibition; mode of inhibition of BChE (BChE [6]): mixed inhibition
CCCCCCCCCCN1C(=O)C(=O)c2ccccc21 [Compound 4j, 1-Decylindoline-2,3-dione]	62.2 ± 8.5	12.1	5.16 ± 0.66	–
C=C1SC(SCCCN2C(=O)C(=O)c3ccccc32)=NC1(C)C [Compound 3]	–	–	–	IC50 (AChE [7]): 18.2 µM; mode of inhibition of AChE (AChE [8]): non-competitive inhibition
CCCCCCCCCCCCN1C(=O)C(=O)c2ccccc21 [N-dodecyl isatin]	–	–	–	Ki (AChE [3]): > 100 µM; Ki (BChE [4]): > 100 µM
CCCCCN1C(=O)C(=O)c2ccccc21 [Compound 4e, 1-Pentylindoline-2,3-dione]	197 ± 51	2.4	83.8 ± 3.4	–
CCN1C(=O)C(=O)c2ccccc21 [Compound 4b, 1-Ethylindoline-2,3-dione]	297 ± 35	1.5	193 ± 8	–
CCn1ccc2ccccc21 [Compound 5b, 1-Ethyl-1H-indole]	–	< 0.8	–	IC50 (AChE [1]): 101 ± 6 µM; IC50 (BChE [2]): > 125 µM
CCCCCCCN1C(=O)C(=O)c2ccccc21 [Compound 4g, 1-Heptylindoline-2,3-dione]	67.8 ± 7.8	3.3	20.7 ± 3.3	–
O=C1C(=O)N(CCCCCN2C(=O)C(=O)c3ccccc32)c2ccccc21 [Compound 1]	–	–	–	mode of inhibition of BChE (BChE [9]): mixed inhibition
CCCCCCCCN1C(=O)C(=O)c2ccccc21 [Compound 4h, 1-Octylindoline-2,3-dione]	> 125	> 7.0	17.9 ± 1.8	–
O=C1Nc2ccccc2C1=O [isatin, indoline-2,3-dione]	–	–	–	IC50 (AChE [7]): > 1000 µM; IC50 (BChE [10]): > 1000 µM
CCCCCCCCn1ccc2ccccc21 [Compound 5h, 1-Octyl-1H-indole]	49.5 ± 1.8	< 0.8	> 62.5	–
CCCCCCn1ccc2ccccc21 [Compound 5f, 1-Hexyl-1H-indole]	76.2 ± 1.6	< 0.6	> 125	–
CCCCCCCn1ccc2ccccc21 [Compound 5g, 1-Heptyl-1H-indole]	35 ± 10.5	< 0.6	> 62.5	–
CCCn1ccc2ccccc21 [Compound 5c, 1-Propyl-1H-indole]	78.6 ± 2.3	< 0.6	> 125	–
CCCCN1C(=O)C(=O)c2ccccc21 [Compound 4d, 1-Butylindoline-2,3-dione]	–	7.3	73.7 ± 1.3	IC50 (AChE [7]): 540 ± 23 µM
CCCCCn1ccc2ccccc21 [Compound 5e, 1-Pentyl-1H-indole]	95 ± 5.9	< 0.8	> 125	–
Cn1ccc2ccccc21 [Compound 5a, 1-Methyl-1H-indole]	–	< 0.7	–	IC50 (AChE [1]): 86.7 ± 4.5 µM; IC50 (BChE [2]): > 125 µM
CCCCCCCCCCCCCCCCN1C(=O)C(=O)c2ccccc21 [N-hexadecyl isatin]	–	–	–	Ki (AChE [3]): > 100 µM; Ki (BChE [4]): > 100 µM
CCCCCCCCCCn1ccc2ccccc21 [Compound 5j, 1-Decyl-1H-indole]	48.6 ± 1.4	< 0.8	> 62.5	–
CCCN1C(=O)C(=O)c2ccccc21 [Compound 4c, 1-Propylindoline-2,3-dione]	519 ± 11	2.0	257 ± 8	–
CCCCCCCCCn1ccc2ccccc21 [Compound 5i, 1-Nonyl-1H-indole]	44.6 ± 1.7	< 0.7	> 62.5	loss of potency towards BChE compared to 4i (BChE [2]; inhibition assay, 5i vs 4i): > 17 fold
